Experimental findings from ChEMBL document CHEMBL1122370 (J Med Chem, 1983) are described below.

SMILES strings stand for the structures.

In data set [1] the test system is Mus musculus. The experiment in a line: Average weight of the mouse after treating with 40 mg/kg dose for 7 days. The format is functional. Details: unit not given beside the values.
Data set [2] relates to L1210. As to the kind of experiment: In vivo antitumor activity against L1210 leukemia in 5 mice measured as Increased life span at 20 mg/kg. The class given is functional. The note with it: Mus musculus.
The subject of data set [3] is Mus musculus. As to the kind of experiment: Average weight of the mouse after treating with 40 mg/kg dose for 1 day. The format is functional. Details: unit not given here.
In data set [4] the test system is Mus musculus. As to the kind of experiment: Average weight of the mouse after treating with 20 mg/kg dose for 1 day. The format is functional. Details: unit not given here.
For data set [5], the system named is L1210. The experiment in a line: In vivo antitumor activity against L1210 leukemia in 5 mice measured as median survival range at 80 mg/kg; Value ranges from(13-20). The format is functional, Mus musculus.
In data set [6] the test system is Mus musculus. The experiment in a line: (§1) Average weight of the mouse after treating with 20 mg/kg dose for 7 days. The format is functional. Details: unit not given beside the values.
The subject of data set [7] is L1210. The experiment in a line: In vivo antitumor activity against L1210 leukemia in 5 mice measured as Increased life span. The class given is functional, Mus musculus.
Data set [8] deals with L1210. The experiment in a line: In vivo antitumor activity against L1210 leukemia in 5 mice measured as median survival range at 20 mg/kg; Value ranges from(12-14). The format is functional, Mus musculus.
Data set [9] concerns L1210. As to the kind of experiment: In vivo antitumor activity against L1210 leukemia in 19 mice measured as T/C value; T/C = 19/9. The class given is functional, Mus musculus.
In data set [10] the test system is L1210. The experiment in a line: In vivo antitumor activity against L1210 leukemia in 5 mice measured as Increased life span at 40 mg/kg. The format is functional. The following applies: Mus musculus.
The test system of data set [11] is L1210. As to the kind of experiment: In vivo antitumor activity against L1210 leukemia in 5 mice measured as median survival range at 40 mg/kg; Value ranges from(14-17). Details: dose 40 mg/kg. The note with it: mouse.
The subject of data set [12] is Mus musculus. The experiment in a line: Average weight of the mouse after treating with 80 mg/kg dose for 1 day. The format is functional. Details: unit not given here.
For data set [13], the system named is Mus musculus. The experiment in a line: Average weight of the mouse after treating with 80 mg/kg dose for 7 days. Details: unit not given beside the values. The class given is functional.
The subject of data set [14] is Mus musculus. The experiment in a line: Average weight of the mouse after treating with 10 mg/kg dose for 7 day. The class given is functional.
The test system of data set [15] is L1210. The experiment in a line: In vivo antitumor activity against L1210 leukemia in 5 mice measured as median survival range at 20 mg/kg; Value ranges from (14-23). The format is functional, Mus musculus.
Data set [16] concerns L1210. The experiment in a line: In vivo antitumor activity against L1210 leukemia in 5 mice measured as median survival range at 40 mg/kg; Value ranges from(15-23). The format is functional, Mus musculus.
Data set [17] has as its system L1210. As to the kind of experiment: In vivo antitumor activity against L1210 leukemia in 5 mice measured as median survival range at 10 mg/kg; Value ranges from (13-18). The class given is functional, Mus musculus.
The subject of data set [18] is Mus musculus. Described as §1. The format is functional.
Data set [19] has as its system L1210. The experiment in a line: In vivo antitumor activity against L1210 leukemia in 5 mice measured as Increased life span at 10 mg/kg. The class given is functional. The note with it: Mus musculus.
The test system of data set [20] is L1210. The experiment in a line: In vivo antitumor activity against L1210 leukemia in 5 mice measured as T/C values; T/C = 23/9. The format is functional, Mus musculus.
The subject of data set [21] is Mus musculus. As to the kind of experiment: Average weight of the mouse after treating with 10 mg/kg dose for 1 day. Details: unit not given here. The class given is functional.
Data set [22] relates to Mus musculus. The experiment in a line: Average weight of the mouse after treating with 40 mg/kg dose for 7 day. The format is functional.
Data set [23] concerns L1210. As to the kind of experiment: In vivo antitumor activity against L1210 leukemia in 17 mice measured as T/C values; T/C = 17/9. The format is functional, Mus musculus.
Data set [24] has as its system L1210. As to the kind of experiment: In vivo antitumor activity against L1210 leukemia in 13 mice measured as T/C values(days); T/C = 13/9. The format is functional, Mus musculus.
Data set [25] relates to L1210. The experiment in a line: In vivo antitumor activity against L1210 leukemia in 19 mice measured as T/C values(days); T/C = 19/9. The format is functional, Mus musculus.
For data set [26], the system named is L1210. As to the kind of experiment: In vivo antitumor activity against L1210 leukemia in 5 mice measured as median survival range at 80 mg/kg; Value ranges from(12-23). The format is functional, Mus musculus.
Data set [27] relates to L1210. The experiment in a line: In vivo antitumor activity against L1210 leukemia in 5 mice measured as Increased life span at 80 mg/kg. The following applies: Mus musculus. The format is functional.
Data set [28] deals with L1210. As to the kind of experiment: In vivo antitumor activity against L1210 leukemia in 5 mice measured as median survival range at 40 mg/kg; Value ranges from(12-18). The class given is functional, Mus musculus.
Data set [29] concerns Mus musculus. The experiment in a line: Average weight change in mouse after treating with 30 mg/kg dose for 7 days. The format is functional.
Data set [30] concerns L1210. As to the kind of experiment: In vivo anti tumor activity against L1210 leukemia in 5 mice measured as Increased life span at 45 mg/kg. The class given is functional. The following applies: Mus musculus.
Data set [31] relates to Mus musculus. The experiment in a line: Average weight of the mouse after treating with 30 mg/kg dose for 1 day. The class given is functional.
The test system of data set [32] is Mus musculus. The experiment in a line: Average weight of the mouse after treating with 60 mg/kg dose for 1 day. The class given is functional.
The subject of data set [33] is Mus musculus. As to the kind of experiment: Average weight change in mouse after treating with 60 mg/kg dose for 7 days. The class given is functional.
The subject of data set [34] is L1210. The experiment in a line: In vivo antitumor activity against L1210 leukemia in 5 mice measured as median survival range at 30 mg/kg; Value ranges from (10-14). The format is functional, Mus musculus.
For data set [35], the system named is L1210. As to the kind of experiment: In vivo antitumor activity against L1210 leukemia in 9 mice measured as median survival range at 60 mg/kg; Value ranges from (18-21). The format is functional, Mus musculus.
Data set [36] concerns L1210. As to the kind of experiment: In vivo anti tumor activity against L1210 leukemia in 9 mice measured as Increased life span at 60 mg/kg. The format is functional. The note with it: Mus musculus.

Take `CCCCOC(=O)C(CCC(=O)OCc1cccnc1)NC(=O)c1ccc(N(C)Cc2cnc3nc(N)nc(N)c3n2)cc1` (stereo not given): the Weight change in the data set with Mus musculus [1] turned out to be 1.7; with Mus musculus [6] it was 2.4; in the data set with Mus musculus [13], 0.3. The compound also returned an increase in life span (ILS) at 20 mg/kg with L1210 [2] of 50%. Also, the results for the Average weight in the data set with Mus musculus [3], with Mus musculus [4] and in the data set with Mus musculus [12] were 21.2, 21.1 and 22, respectively. In addition, the Range in the data set with L1210 [5] was 20; with L1210 [8] it was 14; with L1210 [11] it was 17. This compound also showed an ILS in the data set on L1210 [7] of 137%. Further, the T/C in the data set with L1210 [9] amounted to 9. In the data set with L1210 [10], the ILS at 40 mg/kg amounted to 75%.
`Cc1ccc(C)c(COC(=O)CCC(NC(=O)c2ccc(N(C)Cc3cnc4nc(N)nc(N)c4n3)cc2)C(=O)OCc2cc(C)ccc2C)c1` (stereo not given) displayed an increase in life span (ILS) at 20 mg/kg in the data set with L1210 [2] of 111%. The Weight change with Mus musculus [14] is recorded as 1.6; in the data set with Mus musculus [18], 0.7; with Mus musculus [22], 0.7. Moreover, the Range with L1210 [15] is on record as 23; with L1210 [16] it was 23; with L1210 [17], 18. Moreover, the Average weight in the data set on Mus musculus [3] was 20.7; in the data set on Mus musculus [4], 22; in the data set with Mus musculus [21], 23. Besides, the ILS at 10 mg/kg in the data set on L1210 [19] came to 88%. The T/C in the data set on L1210 [20] and in the data set on L1210 [23] was 9 throughout. The same compound displayed an ILS at 40 mg/kg in the data set with L1210 [10] of 155%.
`CC(C)COC(=O)CCC(NC(=O)c1cc(Cl)c(N(C)Cc2cnc3nc(N)nc(N)c3n2)c(Cl)c1)C(=O)OCC(C)C` (stereo not given): the Weight change is listed as 0.1 in the data set with Mus musculus [1] and 1.3 with Mus musculus [13]. Also, the T/C in the data set with L1210 [24] and with L1210 [25] was 9 each time. Besides, the values for the Average weight in the data set on Mus musculus [3] and in the data set with Mus musculus [12] were 21.4 and 19.8, respectively. Besides, the Range with L1210 [26] came to 23; in the data set on L1210 [28], 18. This compound returned an ILS at 80 mg/kg in the data set with L1210 [27] of 111%. The compound further had an ILS at 40 mg/kg with L1210 [10] of 44%.
Take `CCCCCCCCCCCCOC(=O)CCC(NC(=O)c1ccc(N(C)Cc2cnc3nc(N)nc(N)c3n2)cc1)C(=O)OCCCCCCCCCCCC` (stereo not given): the values for the Weight change in the data set with Mus musculus [29] and with Mus musculus [33] were 3 and 0, respectively. In the data set with L1210 [30], this compound registered an ILS at 45 mg/kg of 33%. Further, the Average weight in the data set on Mus musculus [31] stood at 23.2; in the data set on Mus musculus [32], 24.2. For the same compound, the Range with L1210 [34] was found to be 14; with L1210 [35], 21. Also, the ILS at 60 mg/kg in the data set on L1210 [36] came to 100%.
